Assay results reported in publication PMC9612231, “Antileishmanial Anthracene Endoperoxides: Efficacy In Vitro, Mechanisms and Structure-Activity Relationships” (Molecules, 2022).

What was measured:
[1] = tested on: LtP, axenic Leishmania tarentolae amastigotes and Leishmania donovani promastigotes; design: method as in PMID 29996524; details: read-out: IC50 in viability tests; cited from earlier work
J774 macrophages = assay: Resazurin viability assay for J774 macrophages; assay type: cell-based, murine; details: Mus musculus, J774, 48 h, read-out: J774 IC50, resazurin viability, endpoint 48 h, 10^5 J774 cells/mL, mean ± SD of 4–8 experiments
Procedure: (§1) The influence of AcEP and their analogs (Ac) on the viability of cells was tested in Leishmania tarentolae promastigotes (LtP) and J774 macrophages (Table 2). Based on the changes of viability of the respective cell lines at different compound concentrations, IC50 values were calculated. In Table 2, the IC50 values in both cell lines were compared for the individual compounds. From the ratio of IC50 values in J774 macrophages to IC50 values in LtP, an in vitro selectivity was calculated.
The murine macrophage cell line J774A.1 (ATCC, TIB-67™, Wesel, Germany) was cultivated up to passage 30 in DMEM (high glucose, 3.7 g/L NaHCO3, pH 7.4) with 25,000 IU/L penicillin, 25 mg/L streptomycin, and 10% FCS (heat-inactivated) in 50 mL TubeSpin bioreactors. J774 cells were incubated at 37 °C and 5% CO2 on a roller culture apparatus (5 rpm) in a Heraeus Cytoperm 8080 incubator (Thermo Electron Corp., Vienna, Austria). To determine the cell count, the cell suspension was re-suspended and diluted 1:2 with phosphate-buffered saline (PBS): 137 mM NaCl, 1.4 mM KH2PO4, 4.3 mM Na2HPO4, and 2.7 mM KCl, pH 7.4. After fixation of the cells by mixing the cell suspension 1:1 with a formaldehyde solution (2%, v/v), aliquots of the resulting suspension were transferred into a standard Neubauer chamber (VWR, Austria) and counted manually using a light microscope (Motic BA310, Vienna, Austria) at a magnification of 40 times. J774 cells were passaged twice a week in a ratio of 1:10.
DMEM containing 25,000 U/L penicillin, 25 mg/L streptomycin, 10% FCS, and 1 × 10^5 J774/mL was prepared. This mixture (200 µL) was distributed in cell culture-treated 96-well plates, except the control wells which contained only DMEM. The cells were incubated for 24 h at 37 °C and 5% CO2 to allow attachment. Afterwards the medium and non-adherent cells were removed by washing with PBS, and then, 200 µL DMEM was added to attached cells. Compounds dissolved in DMSO were added in starting concentrations of 25 µM (Pen) or 200 µM (AcEP/Ac), and then, serial dilutions were carried out resulting in the same concentration steps as listed for LtP. For each compound concentration triplicates on each plate were performed. […], 50 µL of resazurin solution (final concentration 20 µM) was added, and after 4 h of incubation, the fluorescence was measured at 560 nm excitation and 590 nm emission using a plate reader (Perkin Elmer EnSpire, Rodgau, Germany). All tests were repeated at least on four different weeks of cultivation.
(§2) Calculations were carried out using Microsoft Excel 2016 (Microsoft). The graphs were created using Origin 6.1 (OriginLab Corporation, Northampton, MA, USA). For all groups of experimental data, mean and standard deviation (SD) were calculated. Statistically significant differences between groups of sample data were identified by unpaired two-tailed Student’s t-test. Differences on the level of p < 0.05 were considered significant. The number of replicates is indicated at the respective figures/tables. The half-maximal inhibitory concentrations (IC50) were determined from non-linear concentration-response curves using a four-parameter logistic model and expressed as the mean ± SD.

[2] = tested on: Leishmania tarentolae promastigotes (LtP); assay: Resazurin viability assay for LtP; assay type: cell-based; details: Leishmania tarentolae, 48 h, read-out: LtP IC50
Procedure: as §1
LtP (strain P10 from Jena Bioscience, Jena, Germany) were cultivated according to manufacturer instructions up to passage 50 in brain heart infusion medium (37 g/L, pH 7.4) and supplemented with 5 mg/L hemin and 25,000 IU/L penicillin and 25 mg/L streptomycin in 50 mL TubeSpin bioreactors (TPP, Trasadingen. Switzerland). LtP were grown at 27 °C in an incubator (Ehret, Emmendingen, Germany) and agitated at a frequency of 0.05 s^−1. […] For experiments, LtP were used one day after passage. The cell number was calculated by measuring the optical density (OD) of the culture at 600 nm with a U-1100 photometer (Hitachi Ltd., Tokyo, Japan) and applying the formula × 10^6 cells/mL = OD600nm × 0.969 × 124 × dilution factor [53].
Assay medium of YEM (20.7 g/L yeast extract powder, 1.2 g/L K2HPO4, 0.2 g/L KH2PO4, 2.9 g/L glucose, pH 7.4) and PBS (1:1, v/v), 25,000 U/L penicillin, 25 mg/L streptomycin, and 7.7 µM hemin was prepared. Aliquots of 200 µL of this medium and 2 × 10^6 LtP/mL (where required) were distributed in non-treated cell culture 96-well plates. Compounds (dissolved in DMSO) were added with starting concentrations of 25 µM (Pen) or 200 µM (AcEP/Ac), and then, serial dilutions were carried out resulting in a set of concentrations (25, 5, 1, 0.2, 0.04, and 0.008 µM) or (200, 40, 8, 1.6, 0.32, and 0.064 µM). For each compound concentration, at least triplicates on each plate were performed. After incubation of the plates at 27 °C for 48 h, 50 µL of resazurin solution (final concentration in wells 20 µM) was added to each well and after 4 h of incubation, the fluorescence was measured at 560 nm excitation and 590 nm emission using a plate reader (Perkin Elmer EnSpire, Rodgau, Germany) (adapted from). Combination assays for viability in the presence of PIH and NAC were performed the same way. […] All tests were repeated at least on four different weeks of cultivation.
as §2

IC50 [2] [µM] | SMILES | IC50 [1] [µM] | IC50 (J774 macrophages) [µM]
> 200 | c1ccc2cc3ccccc3cc2c1 [Ac, anthracene] | > 100 | > 200
– | O=C1c2ccccc2C(=O)c2ccccc21 [anthraquinone, reference compound] | > 100 | –
